Source: patent publication US12570639B2, “Tetrahydroquinoline derivative and medicinal use thereof” (Toray Industries, Inc., priority 2020, dated 2026)
Where a name gives a salt, the structure may show the parent alone.

How the values were obtained:
[1] = test system: Human fibrosarcoma cells (HT-1080 cells); experiment: In vitro inhibitory action against ferroptosis (Erastin-induced cell death, Cell Counting Kit-8); assay type: cell-based; details: Erastin 3 μmol/L, 24 hours
[2] = test system: MOG-induced experimental autoimmune encephalomyelitis mouse model; experiment: Activity assessment 2 in MOG-induced experimental autoimmune encephalomyelitis mouse model; assay type: in vivo, C57BL/6J mice; details: 30 mg/kg orally twice daily for 15 days starting 50 days after MOG35-55 inoculation; vs vehicle-dosing group (1.93)
Experimental: (§1) A PBS solution prepared to contain a synthetic partial peptide of MOG (MOG35-55; CSBio) at a concentration of 4 mg/mL was mixed with an equal volume of Freund's complete adjuvant, and a total of 0.1 mL (0.05 mL per flank) of the resulting MOG35-55 dosing solution was inoculated intradermally into the bilateral flanks of C57BL/6J mice (male, 10 weeks old, Charles River Laboratories Japan, Inc.). On the day of inoculation of the MOG35-55 dosing solution and on the second day after the inoculation, 200 μL of pertussis toxin (Sigma Co. LLC) prepared at a concentration of 1 μg/mL was further administered intraperitoneally to the mice.
(§2) The compound of Example 11, the compound of Example 32, and the compound of Example 36 were used as test compounds to assess the effect of the test compounds on increase of neurological score in the MOG-induced experimental autoimmune encephalomyelitis mouse model. The study was performed in the same manner as in Example 175, except that the start day for administrating a test compound, the scoring method, and the timing of determining the neurological score were changed from those in Example 175. Each test compound was administered orally at a dose of 30 mg/kg twice daily for a period of 15 days starting 50 days after the inoculation of the MOG35-55 dosing solution. In addition, the score was determined by the following criteria: 0, normal; 0.5, partial drooping tail; 1, full drooping tail or hind-limb weakness; 2, full drooping tail and hind-limb weakness; 3, hind-limb partial paralysis; 4, hind-limb complete paralysis; 5, fore- and hind-limb complete paralysis.
The vertical axis represents neurological score (mean±standard error, n=7 or 8). On the horizontal axis, “Vehicle” represents the vehicle-dosing group, and “Compound of Example 11” represents the compound of Example 11—dosing group, and “Compound of Example 32” represents the compound of Example 32—dosing group, and “Compound of Example 36” represents the compound of Example 36—dosing group.

[3] = In vitro radical scavenging action (DPPH method); details: 30 minutes at room temperature, maximum concentration 100 μmol/L
Experimental: Radical scavenging action was evaluated using the DPPH method in the compound of Comparative Example 1, which is a tetrahydroquinoxaline derivative, and in the tetrahydroquinoline derivative (I) or a pharmaceutically acceptable salt thereof. The DPPH method was performed using an antioxidant capacity measurement kit (Dojindo Laboratories).
A test compound was dissolved in DMSO, and the resulting solution was then mixed with an assay buffer and a DPPH solution, which are included in the kit, to a total volume of 200 μL to obtain a final concentration of 10% DMSO, and the reaction was allowed to proceed. Wells added with 100 μmol/L ferrostatin-1, a radical scavenger, were grouped as “control,” and wells added with not test compound were grouped as “background.” The test compound was serially diluted 3-fold starting from a maximum concentration of 100 μmol/L, and the diluted test compound (1.2, 3.7, 11.1, 33.3, or 100 μmol/L) was added and allowed to react at room temperature. Thirty minutes after the reaction, the absorbance at 517 nm was measured, and the average absorbance value was calculated (N=2). The radical scavenging action of the test compound (hereinafter referred to as radical scavenging rate, %) was calculated based on the equation 2 below. The EC50 value of the test compound was calculated from the radical scavenging rate. Radical scavenging rate (%)=[1−{(Average absorbance value at 517 nm measured when a test compound is added)−(Average absorbance value at 517 nm measured in the background)}/{(Average absorbance value at 517 nm measured in the control)−(Average absorbance value at 517 nm measured in the background)}]×100 Equation 2
A note “no detection of radical scavenging action (N.D.),” is given to compounds with a EC50 of >100 μmol/L.

[4] = test system: MOG-induced experimental autoimmune encephalomyelitis mouse model; experiment: Activity assessment 3 in MOG-induced experimental autoimmune encephalomyelitis mouse model; assay type: in vivo, C57BL/6J mice; details: 10 mg/kg orally twice daily for 10 days starting 53 days after MOG35-55 inoculation; vs vehicle-dosing group (2.25)
Experimental: as §1, §2
The compound of Example 144, the compound of Example 171, and the compound of Example 172 were used as test compounds to assess the effect of the test compounds on increase of neurological score in the MOG-induced experimental autoimmune encephalomyelitis mouse model. […]

[5] = evaluation concentration 30 μmol/L
[6] = evaluation concentration 10 μmol/L

SMILES	Ferroptosis inhibition rate (%) [1, 5]	EC50 [3]	other results
c1ccc2c(c1)CCC(c1cn[nH]c1)N2 (stereo not drawn) [Example 11, 2-(1H-pyrazol-4-yl)-1,2,3,4-tetrahydroquinoline]	–	–	Ferroptosis inhibition rate (%) ([1]; evaluation concentration 50 μmol/L): 106.0%; neurological score reduction rate [2]: 54.4%
NS(=O)(=O)c1ccc(C2CCc3ccccc3N2)cc1 (stereo not drawn) [Example 32, 4-(1,2,3,4-tetrahydroquinolin-2-yl)benzenesulfonamide]	100.5%	> 100 µM	neurological score reduction rate [2]: 55.4%
NC(=O)c1ccc(C2CCc3ccccc3N2)cc1 (stereo not drawn) [Example 36, 4-(1,2,3,4-tetrahydroquinolin-2-yl)benzamide]	98.76%	> 100 µM	neurological score reduction rate [2]: 45.1%
O=C(Cc1ccc2c(c1)CCC(c1ccccc1)N2)N1CC(O)C1 (stereo not drawn) [Example 144, 1-(3-hydroxyazetidin-1-yl)-2-(2-phenyl-1,2,3,4-tetrahydroquinolin-6-yl)ethan-1-one hydrochloride]	–	> 100 µM	Ferroptosis inhibition rate (%) ([1]; evaluation concentration 30 μmol/L, hydrochloride): 96.14%; neurological score reduction rate [4]: 25.0%
CC1(C)CN(C(=O)Cc2ccc3c(c2)CCC(c2ccccc2)N3)C1 (stereo not drawn) [Example 146, 1-(3,3-dimethylazetidin-1-yl)-2-(2-phenyl-1,2,3,4-tetrahy-dro-quin-olin-6-yl)ethan-1-one]	112.8%	> 100 µM	–
COC1CN(C(=O)Cc2ccc3c(c2)CCC(c2ccccc2)N3)C1 (stereo not drawn) [Example 147, 1-(3-methoxyazetidin-1-yl)-2-(2-phenyl-1,2,3,4-tetrahydroquinolin-6-yl)ethan-1-one]	93.00%	> 100 µM	–
O=C(Cc1ccc2c(c1)CCC(c1ccccc1)N2)NC1COC1 (stereo not drawn) [Example 148, N-(oxetan-3-yl)-2-(2-phenyl-1,2,3,4-tetrahydroquinolin-6-yl)acetamide]	86.55%	> 100 µM	–
O=C(Cc1ccc2c(c1)CCC(c1ccccc1)N2)N1CC(F)(F)C1 (stereo not drawn) [Example 149, 1-(3,3-difluoroazetidin-1-yl)-2-(2-phenyl-1,2,3,4-tetrahydroquinolin-6-yl)ethan-1-one]	99.36%	> 100 µM	–
CN(CCO)C(=O)Cc1ccc2c(c1)CCC(c1ccccc1)N2 (stereo not drawn) [Example 150, N-(2-hydroxyethyl)-N-methyl-2-(2-phenyl-1,2,3,4-tetrahydroquino-lin-6-yl)acetamide]	106.9%	> 100 µM	–
O=C(Cc1ccc2c(c1)CCC(c1ccccc1)N2)N1CCC1 (stereo not drawn) [Example 151, 1-(azetidin-1-yl)-2-(2-phenyl-1,2,3,4-tetrahydroquinolin-6-yl)ethan-1-one]	108.2%	> 100 µM	–
O=C(Cc1ccc2c(c1)CCC(c1ccccc1)N2)NC1CC1 (stereo not drawn) [Example 152, N-cyclopropyl-2-(2-phenyl-1,2,3,4-tetrahydroquinolin-6-yl)acetamide]	108.1%	> 100 µM	–
O=C(Cc1ccc2c(c1)CCC(c1ccccc1)N2)NC1CCC1 (stereo not drawn) [Example 155, N-cyclobutyl-2-(2-phenyl-1,2,3,4-tetrahydroquinolin-6-yl)acetamide]	106.1%	> 100 µM	–
O=C1CN(C(=O)Cc2ccc3c(c2)CCC(c2ccccc2)N3)CCN1 (stereo not drawn) [Example 157]	69.89%	> 100 µM	–
O=C(Cc1ccc2c(c1)CCC(c1ccccc1)N2)N1CCNCC1 (stereo not drawn) [Example 158, 2-(2-phenyl-1,2,3,4-tetrahydroquinolin-6-yl)-1-(piperazin-1-yl)ethan-1-one]	55.98%	> 100 µM	–
O=C(Cc1ccc2c(c1)CCC(c1ccccc1)N2)N1CC(F)(F)C1 (stereo not drawn) [Example 160, 1-(3,3-difluoroazetidin-1-yl)-2-(2-phenyl-1,2,3,4-tetrahydroquinolin-6-yl)ethan-1-one]	–	> 100 µM	Ferroptosis inhibition rate (%) [1, 6]: 99.11%
O=C(Cc1ccc2c(c1)CCC(c1ccccc1)N2)N1CC(F)(F)C1 (stereo not drawn) [Example 161, 1-(3,3-difluoroazetidin-1-yl)-2-(2-phenyl-1,2,3,4-tetrahydroquinolin-6-yl)ethan-1-one]	–	> 100 µM	Ferroptosis inhibition rate (%) [1, 6]: 94.01%
NS(=O)(=O)c1ccc(C2CNc3ccccc3C2)cc1 (stereo not drawn) [Example 171, 4-(1,2,3,4-tetrahydroquinolin-3-yl)benzenesulfonamide]	90.71%	–	neurological score reduction rate [4]: 47.2%
NS(=O)(=O)c1ccc(C2CNc3ccccc3C2)cc1 (stereo not drawn) [Example 172, 4-(1,2,3,4-tetrahydroquinolin-3-yl)benzenesulfonamide]	92.87%	–	neurological score reduction rate [4]: 27.8%
